According to patent US11691980B2, “Liphagal analog and multi-targeted kinase inhibitor containing liphagal or analog thereof” (TOHOKU UNIVERSITY, priority 2017, dated 2023):

Key:
Experiment in all cases: mobility shift assay
Assay type in all cases: biochemical
[1] = molecular target: T1, CGK2 (Homo sapiens, UniProt Q13237)
T1 construct: purchased Carna Biosciences

[2] = molecular target: T2, TYK2 (Homo sapiens, UniProt P29597)
T2 construct: purchased Carna Biosciences

[3] = molecular target: T3, ALK(G1202R) (Homo sapiens, UniProt Q9UM73, G1202R)
T3 construct: purchased Carna Biosciences

[4] = molecular target: T4, MST 4 (Homo sapiens, UniProt Q9P289)
T4 construct: purchased Carna Biosciences

[5] = molecular target: T5, LCK (Homo sapiens, UniProt P06239)
T5 construct: purchased Carna Biosciences
T5 sequence (P06239 whole entry): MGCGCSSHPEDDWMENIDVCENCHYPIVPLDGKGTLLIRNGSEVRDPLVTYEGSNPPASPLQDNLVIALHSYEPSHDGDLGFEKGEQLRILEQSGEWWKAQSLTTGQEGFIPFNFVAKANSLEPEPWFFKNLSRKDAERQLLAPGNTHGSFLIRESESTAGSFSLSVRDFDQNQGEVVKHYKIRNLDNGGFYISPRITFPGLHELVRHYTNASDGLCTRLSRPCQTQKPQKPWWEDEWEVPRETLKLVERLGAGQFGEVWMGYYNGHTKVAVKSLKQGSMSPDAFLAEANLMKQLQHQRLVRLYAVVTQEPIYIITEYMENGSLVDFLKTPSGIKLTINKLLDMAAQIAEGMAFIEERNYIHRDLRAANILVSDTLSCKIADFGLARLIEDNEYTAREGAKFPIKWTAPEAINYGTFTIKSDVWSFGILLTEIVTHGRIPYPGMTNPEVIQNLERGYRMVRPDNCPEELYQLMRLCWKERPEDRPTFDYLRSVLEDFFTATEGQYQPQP

[6] = molecular target: T6, FER (Homo sapiens, UniProt P16591)
T6 construct: purchased Carna Biosciences

[7] = molecular target: T7, ACK (Homo sapiens, UniProt Q07912)
T7 construct: purchased Carna Biosciences

[8] = molecular target: T8, FGFR3 (Homo sapiens, UniProt P22607)
T8 construct: purchased Carna Biosciences

[9] = molecular target: T9, PAK6 (Homo sapiens, UniProt Q9NQU5)
T9 construct: purchased Carna Biosciences
T9 sequence (Q9NQU5 whole entry): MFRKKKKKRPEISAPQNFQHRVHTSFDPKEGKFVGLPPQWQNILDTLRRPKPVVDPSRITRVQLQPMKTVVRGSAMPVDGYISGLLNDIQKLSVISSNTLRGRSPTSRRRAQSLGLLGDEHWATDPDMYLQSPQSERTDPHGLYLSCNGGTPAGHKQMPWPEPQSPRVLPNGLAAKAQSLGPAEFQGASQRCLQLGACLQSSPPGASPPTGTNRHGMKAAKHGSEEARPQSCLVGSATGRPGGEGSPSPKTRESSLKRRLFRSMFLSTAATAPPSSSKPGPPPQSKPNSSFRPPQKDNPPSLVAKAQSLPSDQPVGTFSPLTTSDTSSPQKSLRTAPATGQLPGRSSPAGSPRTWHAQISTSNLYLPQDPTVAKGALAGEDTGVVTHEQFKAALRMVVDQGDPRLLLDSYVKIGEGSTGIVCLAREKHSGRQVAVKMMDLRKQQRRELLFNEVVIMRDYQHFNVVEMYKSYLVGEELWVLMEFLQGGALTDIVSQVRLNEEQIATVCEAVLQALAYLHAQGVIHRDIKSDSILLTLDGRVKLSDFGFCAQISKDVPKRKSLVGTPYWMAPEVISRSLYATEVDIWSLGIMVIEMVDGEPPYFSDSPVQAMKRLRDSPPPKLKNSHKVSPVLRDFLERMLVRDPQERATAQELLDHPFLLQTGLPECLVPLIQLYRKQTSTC

[10] = molecular target: T10, PYK2 (Homo sapiens, UniProt Q14289)
T10 construct: purchased Carna Biosciences

[11] = molecular target: T11, FGFR4 (Homo sapiens, UniProt P22455)
T11 construct: purchased Carna Biosciences

[12] = molecular target: T12, INSR (Homo sapiens, UniProt P06213)
T12 construct: purchased Carna Biosciences

[13] = molecular target: T13, TAOK2 (Homo sapiens, UniProt Q9UL54)
T13 construct: purchased Carna Biosciences
T13 sequence (Q9UL54 whole entry): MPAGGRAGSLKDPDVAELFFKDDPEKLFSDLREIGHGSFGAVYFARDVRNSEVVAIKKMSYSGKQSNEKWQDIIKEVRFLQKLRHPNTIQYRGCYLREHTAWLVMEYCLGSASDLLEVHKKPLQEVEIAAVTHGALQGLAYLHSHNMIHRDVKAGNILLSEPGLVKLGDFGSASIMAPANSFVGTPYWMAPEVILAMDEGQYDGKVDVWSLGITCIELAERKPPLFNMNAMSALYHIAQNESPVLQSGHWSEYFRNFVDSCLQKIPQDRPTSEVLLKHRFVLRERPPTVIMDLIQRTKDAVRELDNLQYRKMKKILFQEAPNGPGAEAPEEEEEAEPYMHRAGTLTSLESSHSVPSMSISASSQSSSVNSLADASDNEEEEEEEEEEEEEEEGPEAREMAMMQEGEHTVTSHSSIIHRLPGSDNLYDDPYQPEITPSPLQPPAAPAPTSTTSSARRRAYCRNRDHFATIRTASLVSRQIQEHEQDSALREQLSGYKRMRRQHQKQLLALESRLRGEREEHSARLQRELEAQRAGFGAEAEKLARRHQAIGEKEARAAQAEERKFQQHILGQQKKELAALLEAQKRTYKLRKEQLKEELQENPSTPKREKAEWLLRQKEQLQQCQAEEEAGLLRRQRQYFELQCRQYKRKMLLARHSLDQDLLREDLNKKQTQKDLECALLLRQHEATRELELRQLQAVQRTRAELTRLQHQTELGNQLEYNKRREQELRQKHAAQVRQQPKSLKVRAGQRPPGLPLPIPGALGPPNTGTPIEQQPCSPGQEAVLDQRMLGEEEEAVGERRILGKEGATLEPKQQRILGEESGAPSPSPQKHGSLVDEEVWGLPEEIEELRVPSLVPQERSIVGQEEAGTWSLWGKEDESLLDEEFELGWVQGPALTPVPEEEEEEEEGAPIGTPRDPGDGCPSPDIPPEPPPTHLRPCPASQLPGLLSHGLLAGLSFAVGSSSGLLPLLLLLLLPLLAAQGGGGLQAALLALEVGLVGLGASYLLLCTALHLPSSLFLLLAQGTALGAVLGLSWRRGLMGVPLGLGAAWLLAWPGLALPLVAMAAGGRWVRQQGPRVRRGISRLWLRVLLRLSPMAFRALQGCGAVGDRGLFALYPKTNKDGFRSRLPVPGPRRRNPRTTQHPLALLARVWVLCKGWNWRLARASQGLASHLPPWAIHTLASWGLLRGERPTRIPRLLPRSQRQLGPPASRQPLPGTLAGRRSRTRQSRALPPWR

[14] = molecular target: T14, FGR (Homo sapiens, UniProt P09769)
T14 construct: purchased Carna Biosciences

[15] = molecular target: T15, FGFR4(V550E) (Homo sapiens, UniProt P22455, V550E)
T15 construct: purchased Carna Biosciences

[16] = molecular target: T16, RET(S891A) (Homo sapiens, UniProt P07949, S891A)
T16 construct: purchased Carna Biosciences

[17] = molecular target: T17, TNK (Homo sapiens, UniProt Q9UKE5)
T17 construct: purchased Carna Biosciences

[18] = molecular target: T18, AMPKα1/β1/γ1 (Homo sapiens, UniProt Q13131)
T18 construct: purchased Carna Biosciences

[19] = molecular target: T19, RAF1_Cascade (Homo sapiens, UniProt P04049)
T19 construct: purchased Carna Biosciences

[20] = molecular target: T20, TXK (Homo sapiens, UniProt P42681)
T20 construct: purchased Carna Biosciences
T20 sequence (P42681 whole entry): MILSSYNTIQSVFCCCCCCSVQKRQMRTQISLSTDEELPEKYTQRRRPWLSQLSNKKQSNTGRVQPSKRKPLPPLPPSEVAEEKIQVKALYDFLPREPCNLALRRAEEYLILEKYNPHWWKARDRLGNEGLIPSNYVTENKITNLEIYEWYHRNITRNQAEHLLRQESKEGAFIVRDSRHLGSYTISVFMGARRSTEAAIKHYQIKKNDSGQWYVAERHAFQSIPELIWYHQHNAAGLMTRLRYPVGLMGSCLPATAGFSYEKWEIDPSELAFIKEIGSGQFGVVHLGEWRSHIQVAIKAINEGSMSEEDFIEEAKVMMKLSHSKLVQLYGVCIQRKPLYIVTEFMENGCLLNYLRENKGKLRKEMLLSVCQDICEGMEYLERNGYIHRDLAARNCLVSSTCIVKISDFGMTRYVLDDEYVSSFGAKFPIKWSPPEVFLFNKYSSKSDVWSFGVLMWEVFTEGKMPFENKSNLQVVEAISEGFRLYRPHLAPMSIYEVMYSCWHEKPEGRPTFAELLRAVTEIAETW

[21] = molecular target: T21, AurA/TPX2 (Homo sapiens, UniProt O14965)
T21 construct: purchased Carna Biosciences
T21 sequence (O14965 whole entry): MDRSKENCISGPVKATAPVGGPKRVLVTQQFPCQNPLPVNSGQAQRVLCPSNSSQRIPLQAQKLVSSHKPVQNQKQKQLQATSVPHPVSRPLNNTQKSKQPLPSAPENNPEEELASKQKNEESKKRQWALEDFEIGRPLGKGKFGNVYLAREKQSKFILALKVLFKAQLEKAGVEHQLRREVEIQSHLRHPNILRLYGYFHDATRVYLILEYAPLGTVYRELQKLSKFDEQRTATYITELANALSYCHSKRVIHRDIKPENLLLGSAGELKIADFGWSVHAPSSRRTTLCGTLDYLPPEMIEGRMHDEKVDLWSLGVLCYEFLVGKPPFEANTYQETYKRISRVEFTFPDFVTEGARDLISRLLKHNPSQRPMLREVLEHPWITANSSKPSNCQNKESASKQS
T21 sequence (Q9ULW0 1-43 partner limits assumed): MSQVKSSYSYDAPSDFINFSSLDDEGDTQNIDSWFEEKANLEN

[22] = molecular target: T22, BRSK2 (Homo sapiens, UniProt Q8IWQ3)
T22 construct: purchased Carna Biosciences

[23] = molecular target: T23, EGFR (Homo sapiens, UniProt P00533)
T23 construct: purchased Carna Biosciences
T23 sequence (P00533 25-1210): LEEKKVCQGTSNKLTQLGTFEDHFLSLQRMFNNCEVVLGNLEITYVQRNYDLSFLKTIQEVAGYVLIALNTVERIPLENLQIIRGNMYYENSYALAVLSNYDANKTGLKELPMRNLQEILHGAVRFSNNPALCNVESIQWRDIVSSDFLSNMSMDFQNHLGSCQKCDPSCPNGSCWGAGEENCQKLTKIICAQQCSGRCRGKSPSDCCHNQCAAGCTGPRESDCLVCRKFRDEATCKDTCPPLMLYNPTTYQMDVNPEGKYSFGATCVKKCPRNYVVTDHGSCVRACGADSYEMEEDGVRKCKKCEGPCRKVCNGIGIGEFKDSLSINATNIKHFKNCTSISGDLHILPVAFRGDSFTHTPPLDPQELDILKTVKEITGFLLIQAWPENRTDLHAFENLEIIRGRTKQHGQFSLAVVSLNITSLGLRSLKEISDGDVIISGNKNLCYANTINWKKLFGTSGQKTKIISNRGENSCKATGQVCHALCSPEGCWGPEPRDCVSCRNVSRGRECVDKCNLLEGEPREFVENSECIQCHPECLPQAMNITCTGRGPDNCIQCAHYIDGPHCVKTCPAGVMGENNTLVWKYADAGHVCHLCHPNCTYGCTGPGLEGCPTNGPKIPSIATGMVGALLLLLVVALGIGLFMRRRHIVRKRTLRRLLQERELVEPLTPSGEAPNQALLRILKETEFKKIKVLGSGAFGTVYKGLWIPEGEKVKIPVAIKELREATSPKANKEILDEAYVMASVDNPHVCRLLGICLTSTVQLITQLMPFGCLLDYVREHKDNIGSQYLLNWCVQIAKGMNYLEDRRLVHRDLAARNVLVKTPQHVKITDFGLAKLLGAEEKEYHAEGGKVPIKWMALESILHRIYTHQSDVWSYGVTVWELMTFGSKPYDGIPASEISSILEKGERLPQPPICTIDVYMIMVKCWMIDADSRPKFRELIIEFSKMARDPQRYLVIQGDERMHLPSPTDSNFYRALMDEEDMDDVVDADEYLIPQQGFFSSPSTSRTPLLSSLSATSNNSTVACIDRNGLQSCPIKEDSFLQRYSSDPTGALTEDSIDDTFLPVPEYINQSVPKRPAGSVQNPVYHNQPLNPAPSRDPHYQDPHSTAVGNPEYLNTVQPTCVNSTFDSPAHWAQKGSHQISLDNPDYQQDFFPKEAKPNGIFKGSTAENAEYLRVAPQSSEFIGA

[24] = molecular target: T24, JAK3 (Homo sapiens, UniProt P52333)
T24 construct: purchased Carna Biosciences

[25] = molecular target: T25, IRR (Homo sapiens, UniProt P14616)
T25 construct: purchased Carna Biosciences

[26] = molecular target: T26, KIT(D816V) (Homo sapiens, UniProt P10721, D816V)
T26 construct: purchased Carna Biosciences

[27] = molecular target: T27, MELK (Homo sapiens, UniProt Q14680)
T27 construct: purchased Carna Biosciences

[28] = molecular target: T28, NEK2 (Homo sapiens, UniProt P51955)
T28 construct: purchased Carna Biosciences

[29] = molecular target: T29, PKCδ (Homo sapiens, UniProt Q05655)
T29 construct: purchased Carna Biosciences

[30] = molecular target: T30, MST2 (Homo sapiens, UniProt Q13188)
T30 construct: purchased Carna Biosciences

[31] = molecular target: T31, TAK1-TAB1_Cascade (Homo sapiens, UniProt O43318)
T31 construct: purchased Carna Biosciences

[32] = molecular target: T32, FYN(isoform b) (Homo sapiens, UniProt P06241)
T32 construct: purchased Carna Biosciences

[33] = molecular target: T33, EPHA1 (Homo sapiens, UniProt P21709)
T33 construct: purchased Carna Biosciences

[34] = molecular target: T34, HPK1 (Homo sapiens, UniProt Q86Z02)
T34 construct: purchased Carna Biosciences

[35] = molecular target: T35, PIM 1 (Homo sapiens, UniProt P11309)
T35 construct: purchased Carna Biosciences

[36] = molecular target: T36, HER4 (Homo sapiens, UniProt Q15303)
T36 construct: purchased Carna Biosciences

[37] = molecular target: T37, KIT(D816E) (Homo sapiens, UniProt P10721, D816E)
T37 construct: purchased Carna Biosciences

[38] = molecular target: T38, p38δ (Homo sapiens, UniProt O15264)
T38 construct: purchased Carna Biosciences

[39] = molecular target: T39, PKACγ (Homo sapiens, UniProt P22612)
T39 construct: purchased Carna Biosciences

[40] = molecular target: T40, PIM 3 (Homo sapiens, UniProt Q86V86)
T40 construct: purchased Carna Biosciences

[41] = molecular target: T41, MARK4 (Homo sapiens, UniProt Q96L34)
T41 construct: purchased Carna Biosciences

[42] = molecular target: T42, MAP2K1 Cascade (Homo sapiens, UniProt Q02750)
T42 construct: purchased Carna Biosciences
T42 sequence (Q02750 whole entry): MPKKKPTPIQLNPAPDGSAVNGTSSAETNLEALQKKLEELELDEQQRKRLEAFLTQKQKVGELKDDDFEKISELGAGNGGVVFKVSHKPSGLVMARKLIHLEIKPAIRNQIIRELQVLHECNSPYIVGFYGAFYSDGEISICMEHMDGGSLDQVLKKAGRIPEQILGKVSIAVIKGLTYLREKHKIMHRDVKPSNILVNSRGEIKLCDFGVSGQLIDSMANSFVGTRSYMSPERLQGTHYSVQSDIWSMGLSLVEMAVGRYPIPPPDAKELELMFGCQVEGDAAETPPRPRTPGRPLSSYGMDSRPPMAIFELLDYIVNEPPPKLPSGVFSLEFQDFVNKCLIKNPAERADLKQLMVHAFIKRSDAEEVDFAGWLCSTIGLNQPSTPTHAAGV

Q: For `C[C@@H]1CC[C@H]2C(C)(C)CCC[C@]2(C)c2c1oc1c(C=O)c(O)c(O)cc21` [LG-1, liphagal], which inhibition at 10 µM [1] is on record?
A: 7.3%

Q: And the inhibition at 10 µM [2]?
A: -6.5%

Q: And the inhibition at 10 µM [3]?
A: -0.3%

Q: What about the inhibition at 10 µM [4] of the same molecule?
A: 80.3%

Q: What about the inhibition at 10 µM [5] of the same molecule?
A: 11%

Q: What about the inhibition at 10 µM [6] of the same molecule?
A: 42.8%

Q: What about the inhibition at 10 µM [7] of the same molecule?
A: 8.4%

Q: What about the inhibition at 10 µM [8] of the same molecule?
A: -4.4%

Q: And the inhibition at 10 µM [9]?
A: -99.3%

Q: And the inhibition at 10 µM [10]?
A: 21.6%

Q: What about the inhibition at 10 µM [11] of the same molecule?
A: 7.5%

Q: And the inhibition at 10 µM [12]?
A: 14.1%

Q: And the inhibition at 10 µM [13]?
A: 24.5%

Q: And the inhibition at 10 µM [14]?
A: 9.3%

Q: What about the inhibition at 10 µM [15] of the same molecule?
A: 2.4%

Q: What about the inhibition at 10 µM [16] of the same molecule?
A: 2.1%

Q: What about the inhibition at 10 µM [17] of the same molecule?
A: 0.1%

Q: And the inhibition at 10 µM [18]?
A: 19.9%

Q: What about the inhibition at 10 µM [19] of the same molecule?
A: 15.3%

Q: What about the inhibition at 10 µM [20] of the same molecule?
A: 23.1%

Q: And the inhibition at 10 µM [21]?
A: 12.2%

Q: And the inhibition at 10 µM [22]?
A: 9.3%

Q: What about the inhibition at 10 µM [23] of the same molecule?
A: -4.4%

Q: What about the inhibition at 10 µM [24] of the same molecule?
A: -7.2%

Q: What about the inhibition at 10 µM [25] of the same molecule?
A: 23.1%

Q: What about the inhibition at 10 µM [26] of the same molecule?
A: 13%

Q: What about the inhibition at 10 µM [27] of the same molecule?
A: 49.2%

Q: And the inhibition at 10 µM [28]?
A: 3.5%

Q: And the inhibition at 10 µM [29]?
A: 1.6%

Q: What about the inhibition at 10 µM [30] of the same molecule?
A: 7.6%

Q: What about the inhibition at 10 µM [31] of the same molecule?
A: 13.9%

Q: And the inhibition at 10 µM [32]?
A: 3.1%

Q: What about the inhibition at 10 µM [33] of the same molecule?
A: 0.5%

Q: And the inhibition at 10 µM [34]?
A: 26.1%

Q: And the inhibition at 10 µM [35]?
A: 50.3%

Q: And the inhibition at 10 µM [36]?
A: 17.9%

Q: What about the inhibition at 10 µM [37] of the same molecule?
A: 19.4%

Q: What about the inhibition at 10 µM [38] of the same molecule?
A: -0.1%

Q: And the inhibition at 10 µM [39]?
A: 18.7%

Q: And the inhibition at 10 µM [40]?
A: 28.9%

Q: What about the inhibition at 10 µM [41] of the same molecule?
A: -3.8%

Q: What about the inhibition at 10 µM [42] of the same molecule?
A: 4.1%
